Data as given in patent US20220048908A1, “COMPOSITIONS AND METHODS FOR MODULATING HAIR GROWTH” (The Regents of the University of California, priority 2019, published 2022).
“Also recorded” adds a separate entry of the source.

Legend:
hair cycle = assay: Topical treatment of mice in telogen with UK-5099: hair cycle / HFSC activation; type: in vivo
Description: (§1) FIG. 7A: Animals treated topically with UK-5099 (20 μM) show pigmentation and hair growth, indicative of entry into anagen, after 8 days of treatment. Full anagen, indicated by full coat of hair, is achieved after 14 days of treatment. […] Images shown are representative of at least 14 mice from 7 independent experiments. Scale bars indicate 100 micrometers. FIG. 7B: Graph showing time to observed phenotype in vehicle versus UK-5099 treated mice. n=6 mice per condition. Shown as mean±SEM. […] Ldh activity is indicated by purple stain; pink is nuclear fast red counterstain. Scale bars indicate 50 micrometers. FIG. 7D: Metabolomic analysis of Lactate on HFSCs isolated from UK-5099 treated skin for 48 hours; Each bar represents the average signal for each condition where n=9 mice pooled from 3 independent experiments. Shown as mean±SEM. Paired t-test was performed, p<0.05.
(§2) Quantification of the hair cycle across at least 6 pairs of animals (vehicle vs UK-5099) indicated a strong acceleration of the hair cycle, in as few as 6-9 days (FIG. 7B).

[1] = test system: Ldh activity in HFSCs and the interfollicular epidermis; assay: Ldh enzyme activity assay in the epidermis of topically treated animals; type: in vivo, mice; settings: topical, 48 hours during telogen
Description: as §1
To determine whether Ldha expression patterns correlate with activity of the Ldh enzyme, a colorimetric-based enzymatic assay was used to assess Ldh activity capacity in situ. Typically performed on protein lysates or aliquots with a plate reader, the Ldh activity assay was adapted to work in situ on frozen tissue sections. […]
as §2

lactate in sorted HFSCs = assay: Metabolomic analysis of lactate on HFSCs isolated from treated skin; type: in vivo, mice; settings: topical application, skin treated for 48 hours
Description: as §1, §2

[2] = topical treatment of animals in telogen (day 50)

**Q.** Which “effect on the hair cycle” value (hair cycle; [2]) does the source give for `N#C/C(=C\c1cn(-c2ccccc2)c2ccccc12)C(=O)O` [UK-5099, (E)-2-Cyano-3-(1-phenyl-1H-indol-3-yl)acrylic acid] here?
**A.** robust acceleration of the hair cycle

**Q.** What about the “effect on the interfollicular epidermis (proliferation)” value (hair cycle; [2]) of the same compound?
**A.** minor hyperproliferation of the interfollicular epidermis

**Q.** And the “time to full anagen, indicated by full coat of hair” value (hair cycle; topical, 20 μM)?
**A.** 14 days

**Q.** What about the “skin pathology (entry into anagen)” value (hair cycle; topical, 20 μM, at 8 weeks, vehicle remained in telogen) of the same compound?
**A.** enter an accelerated anagen

**Q.** What about the “time to pigmentation and hair growth, indicative of entry into anagen” value (hair cycle; topical, 20 μM, vehicle shows none even after 12 days) of the same compound?
**A.** 8 days

**Q.** What about the “time in which acceleration of the hair cycle is seen” value (hair cycle; topical, at least 6 pairs of animals, vehicle vs UK-5099) of the same compound?
**A.** 6 to 9 days

**Q.** What about the “Ldh activity in HFSCs and interfollicular epidermis” value [1] of the same compound?
**A.** Ldh enzyme activity also seen in interfollicular epidermis; also recorded: increased Ldh activity

**Q.** And the “total levels of lactate in sorted HFSCs” value (lactate in sorted HFSCs)?
**A.** increases total levels of lactate
